Some test systems named below: MCF7 breast; OVCAR-4 ovarian; OVCAR-5 ovarian; HCT-15 colon; MOLT-4 leukemia; K-562 leukemia; SK-MEL-5 melanoma; DU-145 prostate; LOX IMVI melanoma; A498 renal.
What all share (assay): growth of human tumour cells (NCI), 48 h

The text below walks through data of PubChem BioAssay (NCI).

Each structure is given as a SMILES string. “And” between values parts separate entries of the source, which are not always exact repeats. Equal entries are not always repeated.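 How tested: cells in 96-well plates exposed to compound for 48 hours at five concentrations. The concentration for 50% growth inhibition is given as GI50. The concentration for full growth arrest is given as TGI.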

On to `Cc1[nH]c(N)nc(=S)c1CCC(=O)O`, for which the TGI in the test with MCF7 breast, in the test with OVCAR-4 ovarian, with OVCAR-5 ovarian, in the test with HCT-15 colon, with MOLT-4 leukemia and in the test on K-562 leukemia was above 100 µM throughout. Further, the TGI in the test with SK-MEL-5 melanoma, in the test on DU-145 prostate, in the test on LOX IMVI melanoma and with A498 renal was above 100 µM each time.

As for `CO[C@H]1C[C@](C)(O)Cc2cc3c(c(O)c21)C(=O)c1c(O)cc2c(c1C3=O)O[C@@H]1O[C@@]2(C)[C@H](O)[C@@H](N(C)C)[C@@H]1O`, the TGI in the test on MCF7 breast is 8.86 µM; in the test with OVCAR-4 ovarian, 3.46 µM and 12.6 µM; in the test with OVCAR-5 ovarian, 3.3 µM and 15 µM; in the test with HCT-15 colon, 3.4 µM and 10.9 µM; with MOLT-4 leukemia it was 0.186 µM and 0.664 µM; in the test on K-562 leukemia it was 6.65 µM and 15.7 µM. The TGI in the test with SK-MEL-5 melanoma is 3.17 µM and 10.2 µM; in the test on DU-145 prostate it was 7.14 µM; in the test with LOX IMVI melanoma, 2.15 µM and 2.71 µM; with A498 renal, 7.95 µM and 5.14 µM. Also, the GI50 in the test on OVCAR-4 ovarian is 1.87 µM; in the test with OVCAR-5 ovarian, 1.37 µM; with MOLT-4 leukemia it was 0.0296 µM and 0.0271 µM; in the test on LOX IMVI melanoma, 0.509 µM and 1.06 µM; in the test on A498 renal, 1.66 µM.

Regarding `O=C(c1ccco1)c1c(C(F)(F)F)n([O-])c2cc(C(F)(F)F)ccc2[n+]1=O`, the GI50 was 0.445 µM with MCF7 breast; 1.35 µM in the test on OVCAR-4 ovarian; 1.86 µM with OVCAR-5 ovarian; 0.404 µM in the test with HCT-15 colon; 0.0773 µM in the test on MOLT-4 leukemia; 0.172 µM in the test on K-562 leukemia. The GI50 in the test with SK-MEL-5 melanoma was 0.683 µM; in the test on DU-145 prostate it was 0.549 µM; in the test on LOX IMVI melanoma it was 0.299 µM; in the test on A498 renal it was 1.53 µM. Also, the TGI with MCF7 breast worked out at 1.95 µM; in the test with OVCAR-4 ovarian, 3.94 µM; with OVCAR-5 ovarian, 3.39 µM; in the test on HCT-15 colon it was 0.842 µM; in the test on MOLT-4 leukemia, 0.162 µM; in the test on K-562 leukemia it was 0.379 µM. In addition, the TGI in the test on SK-MEL-5 melanoma was 1.7 µM; in the test with DU-145 prostate, 1.21 µM; in the test on LOX IMVI melanoma, 0.73 µM; in the test with A498 renal it was 3.28 µM.

As for `CC(C)c1cccc(O)c(=O)c1`, the GI50 in the test with MCF7 breast is 1.46 µg/mL; in the test on OVCAR-5 ovarian, 75 µg/mL; with HCT-15 colon, 0.997 µg/mL; in the test on K-562 leukemia it was 2.38 µg/mL; with SK-MEL-5 melanoma, 1.35 µg/mL; with DU-145 prostate, 2.1 µg/mL. Also, the GI50 in the test on LOX IMVI melanoma was 1.94 µg/mL. For the same compound, the TGI in the test with MCF7 breast was 5.08 µg/mL; in the test on OVCAR-4 ovarian, above 100 µM; in the test with OVCAR-5 ovarian, > 75 µg/mL and > 100 µM; with HCT-15 colon, > 75 µg/mL and > 100 µM; in the test on MOLT-4 leukemia, above 46.9 µM; in the test on DU-145 prostate it was 24.7 µg/mL. In addition, the TGI with LOX IMVI melanoma is > 75 µg/mL and > 100 µM; in the test on A498 renal it was above 100 µM.

On to `O=C(C#Cc1ccccc1)C1=Cc2ccccc2OC1`, for which the TGI in the test on MCF7 breast was 3.87 µM; in the test with OVCAR-4 ovarian, 8.9 µM; with OVCAR-5 ovarian, 15 µM; in the test with HCT-15 colon it was 6.38 µM; with MOLT-4 leukemia, above 100 µM; in the test on K-562 leukemia it was above 100 µM. The TGI in the test with SK-MEL-5 melanoma came out at 4.89 µM; in the test with DU-145 prostate, 20.7 µM; with LOX IMVI melanoma it was 6.32 µM; in the test on A498 renal it was 39.2 µM.

As to `CCCCCCCC(=O)SCC/C=C/[C@@H]1CC(=O)NCc2nc(cs2)C2=N[C@@](C)(CS2)C(=O)N[C@@H](C(C)C)C(=O)N1`, the GI50 with MCF7 breast is 0.0198 µM; with OVCAR-4 ovarian, 0.0212 µM; in the test with OVCAR-5 ovarian, 0.0118 µM; in the test with HCT-15 colon, 3.42 µM; in the test with MOLT-4 leukemia, below 0.0112 µM; with K-562 leukemia it was 0.0182 µM. Further, the GI50 in the test on SK-MEL-5 melanoma was 0.0233 µM; with DU-145 prostate it was below 0.01 µM; in the test on LOX IMVI melanoma, 0.0198 µM; in the test with A498 renal it was 0.0244 µM. Further, the TGI in the test on MCF7 breast is above 100 µM; in the test on OVCAR-4 ovarian, above 100 µM; in the test on OVCAR-5 ovarian it was above 100 µM; in the test with HCT-15 colon, 97 µM; with MOLT-4 leukemia, above 100 µM; with K-562 leukemia, above 100 µM. Besides, the TGI with SK-MEL-5 melanoma is 0.977 µM; in the test on DU-145 prostate, above 100 µM; in the test with LOX IMVI melanoma, 0.0468 µM; in the test on A498 renal, 0.333 µM.

Take `O=CN1N=C(c2cccc(Nc3ccnc4cc(Cl)ccc34)c2)CC1c1ccccc1` (stereo not given): the GI50 is 0.311 µM in the test with MCF7 breast; 0.536 µM in the test on OVCAR-4 ovarian; 1.5 µM in the test on OVCAR-5 ovarian; 0.511 µM in the test with HCT-15 colon; 0.383 µM in the test with MOLT-4 leukemia; 0.301 µM in the test with K-562 leukemia. In addition, the GI50 with SK-MEL-5 melanoma is 0.315 µM; in the test on DU-145 prostate, 0.44 µM; with LOX IMVI melanoma, 0.449 µM; in the test with A498 renal, 0.23 µM. Besides, the TGI is above 33 µM in the test on MCF7 breast; above 100 µM in the test with OVCAR-4 ovarian; above 100 µM in the test with OVCAR-5 ovarian; above 100 µM in the test on HCT-15 colon; 2.77 µM with MOLT-4 leukemia; 10.5 µM in the test with K-562 leukemia. In addition, the TGI was determined as 2.02 µM in the test with SK-MEL-5 melanoma, 16.8 µM in the test with DU-145 prostate, 4.34 µM in the test on LOX IMVI melanoma and 1.1 µM in the test on A498 renal.

Take `CCCCCCCC/C=C1\CCC(CN2CCOCC2)C1=O` (stereo not given): the TGI was determined as 6.18 µM in the test on MCF7 breast; 31 µM with OVCAR-4 ovarian; 36.5 µM in the test with OVCAR-5 ovarian; 9.52 µM in the test with HCT-15 colon; 5.35 µM in the test with MOLT-4 leukemia; 8.68 µM with K-562 leukemia. Besides, the TGI in the test with SK-MEL-5 melanoma came to 23.2 µM; with DU-145 prostate it was 17.9 µM; in the test with LOX IMVI melanoma it was 9.94 µM; in the test with A498 renal, 29.9 µM.

For `Cc1nc2ccccn2c1NC(=O)NNC(=S)Nc1ccc(F)cc1`, the GI50 was above 100 µM in the test on MCF7 breast; above 100 µM in the test on OVCAR-4 ovarian; above 100 µM with OVCAR-5 ovarian; above 100 µM in the test on HCT-15 colon; 20.4 µM in the test with MOLT-4 leukemia; above 100 µM with K-562 leukemia. Besides, the GI50 in the test on SK-MEL-5 melanoma, with DU-145 prostate, in the test on LOX IMVI melanoma and in the test on A498 renal was above 100 µM in each case. Besides, the TGI in the test on MCF7 breast, with OVCAR-4 ovarian, with OVCAR-5 ovarian, in the test on HCT-15 colon, with MOLT-4 leukemia and in the test with K-562 leukemia was above 100 µM throughout. For the same compound, the TGI in the test on SK-MEL-5 melanoma, with DU-145 prostate, in the test on LOX IMVI melanoma and in the test with A498 renal was above 100 µM each time.
